One assay addresses TcuKam (Thermomonospora curvata, UniProt D1A6K4). The assay can be described thus: biochemical. The format is binding.
The target of a further assay is CacKam (Catenulispora acidiphila, UniProt C7Q5P8). The assay can be described thus: biochemical. It counts as binding.
For a further assay, the target named is CarKam. The assay can be described thus: isothermal titration calorimetry, single-site fit. The format is binding, Candidatus Arthromitus sp. SFB-mouse-NYU. Conditions: 25 °C, 20 mM Tris pH 7.5, 10 mM magnesium acetate, 250 mM NH4Cl, 10 % glycerol, 6 mM β-mercaptoethanol, no 30S subunit.
The next assay has as its target (UniProt K2DC64). The assay can be described thus: biochemical.

Each structure is given as a SMILES string. Read-outs that look alike come from different tables or passages of the source.

In the case of `Nc1ncnc2c1ncn2[C@@H]1O[C@H](CSCC[C@H](N)C(=O)O)[C@@H](O)[C@H]1O` [SAH], the Kd at TcuKam turned out to be 1.9 µM; at CacKam, 2.7 µM; at CarKam (read-out: Kd (μM) / SAH) it was 4.1 µM.
In the case of `C[S+](CC[C@H](N)C(=O)O)C[C@H]1O[C@@H](n2cnc3c(N)ncnc32)[C@H](O)[C@@H]1O` (stereo partly shown) [SAM], the Kd was 13 µM at TcuKam, 44 µM at CacKam, 24 µM on CarKam (read-out: Kd (μM) / SAM) and 75 µM at (UniProt K2DC64).

The record behind these values is paper PMC4122235 (Biochimica et biophysica acta, 2014).
